US12286442B2, “Methods and materials for increasing transcription factor eb polypeptide levels” (University of Pittsburgh—Of the Commonwealth System of …, priority 2019, dated 2025)

How the values were obtained:
Beas2B cells = assay: Lysosome quantity in Beas2B cells (light microscope, lysotracker Red confocal microscopy); format: cell-based, human; conditions: 18 hours, 1 μM or indicated concentrations
Description: FIGS. 4A-B. Compound 178 (BC1834) and Compound 160 (BC18200) increased lysosome quantity. A. Beas2B cells were treated with Cmpd. 178, Cmpd. 160, or the GSK3b inhibitor TWS119 (1 μM for 18 hours). Cells were then imaged through light microscope. B. Beas2B cells were treated with Cmpd. 178 for 18 hours at the indicated concentrations. Cells were then stained with lysotracker Red (100 nM) for 30 minutes. Cells then were washed and imaged through confocal microscopy.

TFEB = assay: High content screen measuring TFEB nuclear accumulation (TFEB nuclear/cytosol ratio) in BEAS-2B cells stably expressing TFEB-EGFP; format: cell-based, human; conditions: 18 hours incubation
How it was run: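 Readout: lowest compound concentration giving a 25% rise in nuclear/cytosol TFEB-GFP ratio, from DAPI-masked nuclear and mask-expanded cytosolic signals. Cells (BEAS-2B, TFEB-EGFP stable, ~2300–2500/well) rested 8 hours, then treated 18 hours with compound serial dilutions in 2% FBS medium before PFA fixation and DAPI staining.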

[1] = test system: b-hexosaminidase (a lysosomal enzyme); assay: Secreted b-hexosaminidase activity normalized with cellular b-hexosaminidase activity in Beas2B cells; format: cell-based, human; conditions: indicated concentration, 18 hours
Description: (§1) FIGS. 5A-B. Compound 133 and Compound 115 increased lysosomal protein expression and secretion. A. Beas2B cells were treated with Cmpd. 133 at 10 μM for 24 hours. Cells then were collected and assayed for lysosomal protein gene expression. B. Beas2B cells were treated with Cmpd. 115 at the indicated concentration for 18 hours. Secreted b-hexosaminidase activity (a lysosomal enzyme) then was measured and normalized with cellular b-hexosaminidase activity.

BEAS-2B cells = assay: Toxicity: compound concentration needed to induce greater than 50 percent of cell loss; format: cell-based, human; conditions: 18 hours incubation
How it was run: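 Reported value is the concentration giving greater than 50 percent cell loss, grouped into bins (≥25 μM; between 1 and 25 μM; ≤1 μM as "+++"). Measured by high-content imaging of DAPI-stained BEAS-2B TFEB-EGFP cells fixed after 18 h compound exposure.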

[2] = test system: lysosomal protein gene expression; assay: Lysosomal protein gene expression in Beas2B cells; format: cell-based, human; conditions: 10 μM for 24 hours
Description: as §1

GFP-72Q (Huntingtin) = assay: GFP-Huntingtin levels in SH5Y cells stably transfected with GFP-72Q (confocal imaging, immunoblot); format: cell-based; conditions: SH5Y cells stably expressing GFP-Huntingtin (72Q), indicated amounts, 24 hours
Description: FIGS. 6A-B. Compound 178 reduced Huntingtin gene expression. A-B. SH5Y cells stably transfected with GFP-72Q (Huntingtin) were treated with the indicated amounts of Cmpd. 178 for 24 hours. Cells then were imaged with a confocal microscope or collected and assayed for protein expression using a GFP-Huntingtin immunoblot.
Compound 178 (BC1834) was tested for the ability to reduce Huntingtin polypeptide levels within cells. Briefly, Compound 178 was administered to SH5Y cells stably expressing GFP-Huntingtin (72Q).

liver lysosomes = assay: Liver lysosomal activity in mice (dextran blue confocal microscopy, Lamp2 immunostaining); format: in vivo; conditions: female C57BL6 mice, i.p. for 4 days, 50 mg/kg/d or 30 mg/kg/day; for liver lysosomal dextran blue signal (lysosomal number and activity): liver 24 hours after i.v. dextran blue; for liver Lamp2 staining: liver slides
Description: FIG. 7. Compound 15 increases liver lysosomal activity. Female C57BL6 mice were intraperitoneally (i.p.) injected with Cmpd. 15 (50 mg/kg/d) for 4 days. Mice were then intravenously (i.v.) injected with dextran blue. 24 hours later, mice were sacrificed, and livers were removed and imaged through confocal microscopy. White fluorescent signal indicates dextran blue within lysosome and provides a measure of lysosomal number and activity within the hepatic tissue (Upper panels). […] Scale bar: 50 microns.
Female C57BL6 mice were i.p. injected with Compound 15 (30 mg/kg/day) for 4 days. Mice were then i.v. injected with dextran blue. 24 hours later, mice were sacrificed, and liver samples were removed and imaged through confocal microscopy.

Row | Compound | efficacy (minimal compound concentration needed to increase TFEB nuclear/cytosol ratio by 25%) (TFEB) | toxicity (compound concentration needed to induce greater than 50 percent of cell loss) (BEAS-2B cells) | further results
1 | c1ccc2c(Nc3ccc4[nH]ncc4c3)nc(-c3ccncc3)nc2c1 [Compound 160] | +++ (“+++” equals ≤1 μM) | ++ (cell loss of greater than 50 percent at a concentration less than 25 μM and greater than 1 μM was represented as) | lysosome quantity (Beas2B cells): increase; secretion of the lysosomal enzyme beta hexosaminidase [1]: increase; lysosomal protein expression [2]: increase
2 | Fc1cccc(Nc2nc(-c3ccncc3)nc3ccccc23)c1 [Compound 178] | +++ (“+++” equals ≤1 μM) | + (cell loss of greater than 50 percent at a concentration that equals or is greater than 25 μM was represented as) | lysosome quantity (Beas2B cells): increase; secretion of the lysosomal enzyme beta hexosaminidase [1]: increase; GFP-Huntingtin polypeptide levels (GFP-72Q (Huntingtin)): dose dependently reduced; lysosomal protein expression [2]: increase
3 | c1ccc2c(Nc3ccc4ccncc4c3)nc(-c3ccncc3)nc2c1 [Compound 13] | + (“+” equals >25 μM) | + (cell loss of greater than 50 percent at a concentration that equals or is greater than 25 μM was represented as) | liver lysosomal dextran blue signal (lysosomal number and activity) (liver lysosomes): drastically increased; liver Lamp2 staining (liver lysosomes): drastically increased
4 | COc1cccc2c(Nc3ccc4[nH]ccc4c3)nc(-c3ccncc3)nc12 [Compound 115] | + (“+” equals >25 μM) | + (cell loss of greater than 50 percent at a concentration that equals or is greater than 25 μM was represented as) | secretion of the lysosomal enzyme beta hexosaminidase [1]: increased
5 | c1cnc2nc(-c3ccncc3)nc(Nc3ccc4c(c3)OCO4)c2c1 [Compound 133] | +++ (“+++” equals ≤1 μM) | + (cell loss of greater than 50 percent at a concentration that equals or is greater than 25 μM was represented as) | lysosomal protein expression [2]: increased
6 | c1ccc2c(Nc3ccc4[nH]ccc4c3)nc(-c3ccncc3)nc2c1 [Compound 15] | +++ (“+++” equals ≤1 μM) | + (cell loss of greater than 50 percent at a concentration that equals or is greater than 25 μM was represented as) | liver lysosomal dextran blue signal (lysosomal number and activity) (liver lysosomes): increases; liver Lamp2 staining (liver lysosomes): enhanced signals
7 | c1cnc2nc(-c3ccncc3)nc(Nc3ccc4[nH]ncc4c3)c2c1 [Compound 80] | ++ (“++” equals between ≤25 μM and >1 μM) | + (cell loss of greater than 50 percent at a concentration that equals or is greater than 25 μM was represented as) | –
8 | Cc1nc2cc(Cl)c(Nc3nc(-c4ccncc4)nc4ncccc34)cc2o1 [Compound 145] | +++ (“+++” equals ≤1 μM) | + (cell loss of greater than 50 percent at a concentration that equals or is greater than 25 μM was represented as) | –
9 | OC(c1cccc(F)c1)c1nc(-c2ccncc2)nc2ccccc12 (stereo not drawn) [Compound 6] | + (“+” equals >25 μM) | + (cell loss of greater than 50 percent at a concentration that equals or is greater than 25 μM was represented as) | –
10 | c1ccc2c(Nc3ccc4[nH]nnc4c3)nc(-c3ccncc3)nc2c1 [Compound 191] | +++ (“+++” equals ≤1 μM) | + (cell loss of greater than 50 percent at a concentration that equals or is greater than 25 μM was represented as) | –
11 | c1cnc2nc(-c3ccncc3)nc(Nc3ccc4nc(C5CC5)sc4c3)c2c1 [Compound 131] | +++ (“+++” equals ≤1 μM) | + (cell loss of greater than 50 percent at a concentration that equals or is greater than 25 μM was represented as) | –
12 | Cc1cccc2c(Nc3ccc4ncsc4c3)nc(-c3ccncc3)nc12 [Compound 371] | +++ (“+++” equals ≤1 μM) | + (cell loss of greater than 50 percent at a concentration that equals or is greater than 25 μM was represented as) | –
13 | CC(C)(C)OC(=O)N1CC=C(c2nc(Nc3ccc4[nH]ccc4c3)c3ccccc3n2)CC1 [Compound 88] | + (“+” equals >25 μM) | + (cell loss of greater than 50 percent at a concentration that equals or is greater than 25 μM was represented as) | –
14 | Cc1ccc(-c2nc(Nc3cc(F)ccc3C)c3ccccc3n2)cc1 [Compound 195] | + (“+” equals >25 μM) | + (cell loss of greater than 50 percent at a concentration that equals or is greater than 25 μM was represented as) | –
15 | Fc1ccc(Nc2nc(-c3cccnc3)nc3ccccc23)cc1F [Compound 196] | + (“+” equals >25 μM) | + (cell loss of greater than 50 percent at a concentration that equals or is greater than 25 μM was represented as) | –
16 | CCN1CCCC1CNc1nc(-c2ccncc2)nc2ccccc12 (stereo not drawn) [Compound 176] | ++ (“++” equals between ≤25 μM and >1 μM) | + (cell loss of greater than 50 percent at a concentration that equals or is greater than 25 μM was represented as) | –
17 | COc1cc(-c2nc(Nc3cc(F)ccc3C)c3ccccc3n2)cc(OC)c1OC [Compound 198] | + (“+” equals >25 μM) | + (cell loss of greater than 50 percent at a concentration that equals or is greater than 25 μM was represented as) | –
18 | c1ccc2c(NC3CC3)nc(-c3ccncc3)nc2c1 [Compound 165] | + (“+” equals >25 μM) | + (cell loss of greater than 50 percent at a concentration that equals or is greater than 25 μM was represented as) | –
19 | c1ccc(-c2cc3ncccc3c(Nc3ccc4nc(C5CC5)sc4c3)n2)nc1 [Compound 248] | ++ (“++” equals between ≤25 μM and >1 μM) | + (cell loss of greater than 50 percent at a concentration that equals or is greater than 25 μM was represented as) | –
20 | COc1ccc2nc(-c3ccncc3)nc(Nc3ccc4nc(C(C)C)sc4c3)c2c1 [Compound 353] | ++ (“++” equals between ≤25 μM and >1 μM) | + (cell loss of greater than 50 percent at a concentration that equals or is greater than 25 μM was represented as) | –
21 | c1cc(-c2nc(Nc3ccc4cn[nH]c4c3)c3cnccc3n2)ccn1 [Compound 125] | ++ (“++” equals between ≤25 μM and >1 μM) | + (cell loss of greater than 50 percent at a concentration that equals or is greater than 25 μM was represented as) | –
22 | c1ccc2c(Nc3ccc4[nH]ccc4c3)nc(-c3ccncc3)cc2c1 [Compound 49] | + (“+” equals >25 μM) | + (cell loss of greater than 50 percent at a concentration that equals or is greater than 25 μM was represented as) | –
